Assays:
Type in all cases: cell-based
A2780 cells [1] = assay: MTT assay IC50 (48 h), A2780; conditions: Homo sapiens; A2780, 48 hours
Protocol: (§1) In another assay format, a test compound is assayed for its cytotoxicity and/or cytostatic effect on certain cancer cell types, using endpoint assay methods. Cells in the NCI cancer cell panel may be used. Cells after a pre-incubation for certain length of time (for example, 8 hrs or 24 hrs) are incubated with a test compound at serially-diluted concentrations (for example, five 10-fold dilutions) for 24 hrs and/or 48 hrs, and/or other specific length of time. The dose dependent cytotoxicity and/or cytostatic effects of test compounds can then be tested and evaluated using the 3-(4,5-dimethylthiazol-2-yl)-2,5-diphenyltetrazolium bromide (MTT) assay method, as described by, for example, Boyd (In Principle of Practice of Oncology, Devita, J. T., Hellman, S. and Rosenberg S. A. (Eds), 1989, Vol, 3, PPO Update, No. 10).
(§2) The anticancer potency of DBTS and its derivatives were tested in 8 different types of human cancer cell lines using the RT-CES system and MTT assay. The 8 cancer cell lines were HT1080 (the human fibrosarcoma cell line), H460 (human non small cell lung cancer cell line), OVCAR4 (the human ovarian cancer cell line), MCF7 (human breast cancer cell line) MDA-MB231 (M231, the human breast cancer cell line) A2780 (the human […] cancer cell line) Jurkat (the human T cell leukemia cell line). The test DBTS derivatives include ACEA100107, ACEA100108, ACEA100109, ACEA100111, ACEA100115, ACEA100116, ACEA100117, ACEA100118, ACEA100119, and ACEA100120.
(§3) For the MTT assay, the cells were seeded into the regular 96× well plates at the cell seeding density ranging from 5000 cells/well to 15,000 cells/well. The cells were incubated at 5% CO2 and 37° C. for overnight. The derivatives were serially diluted and added to the cells. The treatment was terminated after 48 hours of incubation by adding MTT staining reagent. After 4 hours, the staining was stopped by the stop buffer and then the calorimetric measurement was carried out on a microtiter plate reader at dual wave length, 650 nm and 550 nm.

HepG2 cells = assay: MTT assay IC50 (48 h), HepG2 (eighth cell line not given); conditions: Homo sapiens; HepG2, 48 hours
Protocol: as §1, §2, §3

[2] = system: MCF7 (human breast cancer cell line); assay: MTT assay IC50 (48 h), MCF7; conditions: MCF-7, 48 hours
Protocol: as §1, §2, §3

[3] = system: OVCAR4 (human ovarian cancer cell line); assay: MTT assay IC50 (48 h), OVCAR4; conditions: OVCAR-4, OVCAR4, 48 hours
Protocol: as §1, §2, §3

A2780 cells [4] = assay: RT-CES system cell proliferation/cytotoxicity IC50, A2780; conditions: Homo sapiens, time point of maximum inhibition
From the text: The RT-CES system comprises three components, an electronic sensor analyzer, a device station and 16× or 96× microtiter plate devices. Microelectrode sensor array was fabricated on glass slides with lithographical microfabrication methods and the electrode-containing slides are assembled to plastic trays to form electrode-containing wells. Each 16× (or 96×) microtiter plate device used in RT-CES system comprises up to 16 (or 96) such electrode-containing wells. The device station receives the 16× or 96× microtiter plate devices and is capable of electronically switching any one of the wells to the sensor analyzer for impedance measurement. In operation, the devices with cells cultured in the wells are placed into a device station that is located inside an incubator. Electrical cables connect the device station to the sensor analyzer. Under the RT-CES software control, the sensor analyzer can automatically select wells to be measured and continuously conduct impedance measurements. The impedance data from the analyzer is transferred to a computer, analyzed and processed by the integrated software.
To quantify cell status based on the measured cell-electrode impedance, a parameter termed Cell Index is derived, according to
[formula] where Rb(f) and Rcell(f) are the frequency dependent electrode resistances (a component of impedance) without cells or with cell present, respectively. N is the number of the frequency points at which the impedance is measured. Thus, Cell Index is a quantitative measure of the status of the cells in an electrode-containing well. Under the same physiological conditions, more cells attached on to the electrodes leads to larger Rcell(f) value, leading to a larger value for Cell Index. Furthermore, for the same number of cells present in the well, a change in the cell status such as morphology will lead to a change in the Cell Index. For example, an increase in cell adhesion or cell spreading leads to larger cell-electrode contact area which will lead to an increase in Rcell(f) and thus a larger value for Cell Index. The Cell Index may also be calculated using a formula different from the one described here. Other methods for calculating the Cell Index based on impedance measurement can be found in PCT application number PCT/US04/37696, fined on Nov. 12, 2004, PCT application number PCT/US05/04481, filed on Feb. 9, 2005, U.S. patent application Ser. No. 10/987,732, filed on Nov. 12, 2004, and U.S. patent application Ser. No. 11/055,639, filed on Feb. 9, 2005.
A2780 cells (human […]) were seeded into wells of 16× or 96× microtiter plate devices (electronic plates, i.e., the plates comprise microelectrode sensor arrays in the wells of the plate) with an initial seeding density of 20,000 cells per well and were pre-incubated in incubator under standard cell culture conditions for about 16.4 hrs. Dibenzyl trisulfide solution in DMSO was added into wells following the incubation period. The cell status was monitored prior to and after the compound addition using RT-CES system. The cell indexes of different wells were between 2.2 and 3.7 just before the compound addition. […] The cell index was normalized against the cell index values at a time point just after compound addition (about 17.5 hrs after cell seeding).
For the assay performed on the RT-CES system, the cells were seeded into the 16× or 96× microtiter plate devices (electronic plates, i.e., the plates comprise microelectrode sensor arrays in the wells of the plate) at the seeding density ranging from 5000 cells/well to 15,000 cells/well. The cells were incubated at 5% CO2 and 37° C. for overnight till the cell indices reached the growth phase where the cell index was between 0.8 and 1.2. Serially diluted compounds were then added to the cells followed by dynamic monitoring of the effect of the compounds on the cell proliferation and cytotoxicity. […]

Compound | IC50 (A2780 cells [1]) [µM] | IC50 (HepG2 cells) [µM] | IC50 [2] [µM] | IC50 [3] [µM] | IC50 (A2780 cells [4]) [µM]
FC(F)(F)c1cccc(CSSSCc2cccc(C(F)(F)F)c2)c1 [ACEA100117, Di(m-trifluoromethylbenzyl)trisulfide] | 11.7 | > 50 | > 50 | > 50 | 11.8
Clc1ccccc1CSSSCc1ccccc1Cl [ACEA100115, Di(o-chlorobenzyl)trisulfide] | 1.5 | > 50 | > 50 | > 50 | 0.75
Fc1ccc(CSSSCc2ccc(F)cc2)cc1 [ACEA100108, Di(p-fluorobenzyl)trisulfide] | 4.7 | > 50 | > 50 | > 50 | 0.5
c1ccc(CSSSCc2ccccc2)cc1 [DBTS, Dibenzyl trisulfide] | 1.2 | > 50 | > 50 | > 50 | 0.4
Cc1cccc(CSSSCc2cccc(C)c2)c1 [ACEA100116, di(m-methylbenzyl)trisulfide] | 0.8 | > 50 | > 50 | > 50 | 0.75
Clc1ccc(CSSSCc2ccc(Cl)cc2)cc1 [ACEA100118, Di(p-chlorobenzyl)trisulfide] | 0.8 | > 50 | > 50 | > 50 | 0.7
